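All cell lines were grown in 96-well plates and treated with compound for 48 hours. GI50 is the concentration that inhibits growth by half. Definition used: TGI = concentration required for complete inhibition of growth.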
Legend:
Experiment in all cases: growth of human tumour cells (NCI), 48 h
SK-OV-3 ovarian = system: SK-OV-3 ovarian
HCT-15 colon = system: HCT-15 colon
MDA-MB-231 breast = system: MDA-MB-231 breast
PC-3 prostate = system: PC-3 prostate
KM12 colon = system: KM12 colon
NCI-H522 lung = system: NCI-H522 lung
OVCAR-8 ovarian = system: OVCAR-8 ovarian
HS 578T breast = system: HS 578T breast
HT29 colon = system: HT29 colon
SK-MEL-2 melanoma = system: SK-MEL-2 melanoma
SF-268 CNS = system: SF-268 CNS
RPMI-8226 leukemia = system: RPMI-8226 leukemia
SF-295 CNS = system: SF-295 CNS
T-47D breast = system: T-47D breast
OVCAR-4 ovarian = system: OVCAR-4 ovarian
COLO 205 colon = system: COLO 205 colon
UACC-62 melanoma = system: UACC-62 melanoma
K-562 leukemia = system: K-562 leukemia
OVCAR-3 ovarian = system: OVCAR-3 ovarian
SN12C renal = system: SN12C renal
LOX IMVI melanoma = system: LOX IMVI melanoma
DU-145 prostate = system: DU-145 prostate
U251 CNS = system: U251 CNS
IGROV1 ovarian = system: IGROV1 ovarian
MOLT-4 leukemia = system: MOLT-4 leukemia
NCI-H226 lung = system: NCI-H226 lung
HOP-62 NSCLC = system: HOP-62 NSCLC
RXF 393 renal = system: RXF 393 renal
SNB-19 CNS = system: SNB-19 CNS
NCI-H460 lung = system: NCI-H460 lung
SNB-75 CNS = system: SNB-75 CNS
OVCAR-5 ovarian = system: OVCAR-5 ovarian
SK-MEL-28 melanoma = system: SK-MEL-28 melanoma
MALME-3M melanoma = system: MALME-3M melanoma
NCI/ADR-RES ovarian = system: NCI/ADR-RES ovarian
HCC-2998 colon = system: HCC-2998 colon
MCF7 breast = system: MCF7 breast
HL-60(TB) leukemia = system: HL-60(TB) leukemia
TK-10 renal = system: TK-10 renal
786-0 renal = system: 786-0 renal
SW-620 colon = system: SW-620 colon
BT-549 breast = system: BT-549 breast
A549 NSCLC = system: A549 NSCLC
A498 renal = system: A498 renal
UACC-257 melanoma = system: UACC-257 melanoma
M14 melanoma = system: M14 melanoma
EKVX NSCLC = system: EKVX NSCLC
UO-31 renal = system: UO-31 renal
MDA-MB-435 = system: MDA-MB-435
ACHN renal = system: ACHN renal
NCI-H23 lung = system: NCI-H23 lung
HOP-92 NSCLC = system: HOP-92 NSCLC
SF-539 CNS = system: SF-539 CNS
CCRF-CEM leukemia = system: CCRF-CEM leukemia
SK-MEL-5 melanoma = system: SK-MEL-5 melanoma

For `CCc1ccc2c(c1)C(=O)c1c-2n(CCCN=[N+]=[N-])c(=O)c2cc(OC)c(OC)cc12`, the GI50 (SK-OV-3 ovarian) was over 100 µM, the TGI (SK-OV-3 ovarian) was over 100 µM and the GI50 (HCT-15 colon) was over 100 µM. It also gave a TGI (HCT-15 colon) of over 100 µM, a GI50 (MDA-MB-231 breast) of over 100 µM and a TGI (MDA-MB-231 breast) of over 100 µM. It also gave a GI50 (PC-3 prostate) of over 100 µM, a TGI (PC-3 prostate) of over 100 µM and a GI50 (KM12 colon) of over 100 µM. It also gave a TGI (KM12 colon) of over 100 µM, a GI50 (NCI-H522 lung) of 49 µM and a TGI (NCI-H522 lung) of over 100 µM. For the same molecule, the GI50 (OVCAR-8 ovarian) was over 100 µM, the TGI (OVCAR-8 ovarian) was over 100 µM and the GI50 (HS 578T breast) was 89.1 µM. For the same molecule, the TGI (HS 578T breast) was over 100 µM, the GI50 (HT29 colon) was over 100 µM and the TGI (HT29 colon) was over 100 µM. The GI50 (SK-MEL-2 melanoma) was over 100 µM, the TGI (SK-MEL-2 melanoma) was over 100 µM and the GI50 (SF-268 CNS) was 60.7 µM. It also gave a TGI (SF-268 CNS) of over 100 µM, a GI50 (RPMI-8226 leukemia) of over 100 µM and a TGI (RPMI-8226 leukemia) of over 100 µM. It also gave a GI50 (SF-295 CNS) of 56.1 µM, a TGI (SF-295 CNS) of over 100 µM and a GI50 (T-47D breast) of over 100 µM. It also gave a TGI (T-47D breast) of over 100 µM, a GI50 (OVCAR-4 ovarian) of over 100 µM and a TGI (OVCAR-4 ovarian) of over 100 µM. The GI50 (COLO 205 colon) was over 100 µM, the TGI (COLO 205 colon) was over 100 µM and the GI50 (UACC-62 melanoma) was 91.9 µM. The TGI (UACC-62 melanoma) was over 100 µM, the GI50 (K-562 leukemia) was over 100 µM and the TGI (K-562 leukemia) was over 100 µM. The GI50 (OVCAR-3 ovarian) was over 100 µM, the TGI (OVCAR-3 ovarian) was over 100 µM and the GI50 (SN12C renal) was over 100 µM. It also gave a TGI (SN12C renal) of over 100 µM, a GI50 (LOX IMVI melanoma) of over 100 µM and a TGI (LOX IMVI melanoma) of over 100 µM. The GI50 (DU-145 prostate) was over 100 µM, the TGI (DU-145 prostate) was over 100 µM and the GI50 (U251 CNS) was 47.1 µM. For the same molecule, the TGI (U251 CNS) was over 100 µM, the GI50 (IGROV1 ovarian) was 53.4 µM and the TGI (IGROV1 ovarian) was over 100 µM. For the same molecule, the GI50 (MOLT-4 leukemia) was over 100 µM, the TGI (MOLT-4 leukemia) was over 100 µM and the GI50 (NCI-H226 lung) was over 100 µM. The TGI (NCI-H226 lung) was over 100 µM, the GI50 (HOP-62 NSCLC) was 56.2 µM and the TGI (HOP-62 NSCLC) was over 100 µM. The GI50 (RXF 393 renal) was 29.9 µM, the TGI (RXF 393 renal) was over 100 µM and the GI50 (SNB-19 CNS) was over 100 µM. The TGI (SNB-19 CNS) was over 100 µM, the GI50 (NCI-H460 lung) was over 100 µM and the TGI (NCI-H460 lung) was over 100 µM. The GI50 (SNB-75 CNS) was over 100 µM, the TGI (SNB-75 CNS) was over 100 µM and the GI50 (OVCAR-5 ovarian) was over 100 µM. For the same molecule, the TGI (OVCAR-5 ovarian) was over 100 µM, the GI50 (SK-MEL-28 melanoma) was over 100 µM and the TGI (SK-MEL-28 melanoma) was over 100 µM. For the same molecule, the GI50 (MALME-3M melanoma) was over 100 µM, the TGI (MALME-3M melanoma) was over 100 µM and the GI50 (NCI/ADR-RES ovarian) was over 100 µM. The TGI (NCI/ADR-RES ovarian) was over 100 µM, the GI50 (HCC-2998 colon) was over 100 µM and the TGI (HCC-2998 colon) was over 100 µM. The GI50 (MCF7 breast) was 91.7 µM, the TGI (MCF7 breast) was over 100 µM and the GI50 (HL-60(TB) leukemia) was over 100 µM. The TGI (HL-60(TB) leukemia) was over 100 µM, the GI50 (TK-10 renal) was 44.2 µM and the TGI (TK-10 renal) was over 100 µM. For the same molecule, the GI50 (786-0 renal) was 40.6 µM, the TGI (786-0 renal) was over 100 µM and the GI50 (SW-620 colon) was over 100 µM. For the same molecule, the TGI (SW-620 colon) was over 100 µM, the GI50 (BT-549 breast) was 76.5 µM and the TGI (BT-549 breast) was over 100 µM. It also gave a GI50 (A549 NSCLC) of over 100 µM, a TGI (A549 NSCLC) of over 100 µM and a GI50 (A498 renal) of 25.8 µM. For the same molecule, the TGI (A498 renal) was 84.5 µM, the GI50 (UACC-257 melanoma) was over 100 µM and the TGI (UACC-257 melanoma) was over 100 µM. For the same molecule, the GI50 (M14 melanoma) was over 100 µM, the TGI (M14 melanoma) was over 100 µM and the GI50 (EKVX NSCLC) was over 100 µM. It also gave a TGI (EKVX NSCLC) of over 100 µM, a GI50 (UO-31 renal) of over 100 µM and a TGI (UO-31 renal) of over 100 µM. It also gave a GI50 (MDA-MB-435) of over 100 µM, a TGI (MDA-MB-435) of over 100 µM and a GI50 (ACHN renal) of 42.2 µM. For the same molecule, the TGI (ACHN renal) was over 100 µM, the GI50 (NCI-H23 lung) was over 100 µM and the TGI (NCI-H23 lung) was over 100 µM. It also gave a GI50 (HOP-92 NSCLC) of 23.8 µM, a TGI (HOP-92 NSCLC) of 94.8 µM and a GI50 (SF-539 CNS) of 57.2 µM. It also gave a TGI (SF-539 CNS) of over 100 µM, a GI50 (CCRF-CEM leukemia) of over 100 µM and a TGI (CCRF-CEM leukemia) of over 100 µM. The GI50 (SK-MEL-5 melanoma) was over 100 µM and the TGI (SK-MEL-5 melanoma) was over 100 µM.

Reference: PubChem BioAssay (NCI)
